Measurements from patent publication EP3048104A1, “AMORPHOUS AND CRYSTALLINE FORMS OF IDELALISIB AND PROCESS FOR FORMING THE SAME” (Sandoz AG, priority 2015, dated 2016).
Converted amounts (≈) assume the structure as drawn.

Legend:
[1] = Solubility in water at 25°C; assay type: physicochemical
[2] = Compression stability (KBr pellet die, XRPD analysis); assay type: physicochemical; details: compressed for 4.5 days at 740 MPa
Procedure: XRPD diffractograms were obtained with an X'Pert PRO diffractometer (PANalytical, Almelo, The Netherlands) equipped with a theta/theta coupled goniometer in transmission geometry, programmable XYZ stage with well plate holder, Cu K-alpha radiation source (wavelength 0.15418 nm) with a focusing mirror, a 0.5° divergence slit, a 0.02° soller slit collimator and a 0.5° anti-scattering slit on the incident beam side, a 2 mm anti-scattering slit, a 0.02° soller slit collimator, a Ni-filter and a solid state PIXcel detector on the diffracted beam side. The diffractogram was recorded at room temperature (25°C) at a tube voltage of 40 kV, tube current of 40 mA, applying a step size of 0.013° 2-Theta with 40 sec per step in the angular range of 2° to 40° 2-Theta. A typical precision of the 2-Theta values is in the range of ± 0.2° 2-Theta. Thus, a diffraction peak that appears for example at 9.4° 2-Theta can appear between 9.2 and 9.6° 2-theta on most X-ray diffractometers under standard conditions. 50 mg of pure amorphous idelalisib obtained as disclosed in Example 4b) were added to a KBr pellet die and compressed for 4.5 days at 740 MPa.

[3] = Thermal and humidity stability (XRPD analysis); assay type: physicochemical
Procedure: XRPD diffractograms were obtained with an X'Pert PRO diffractometer (PANalytical, Almelo, The Netherlands) equipped with a theta/theta coupled goniometer in transmission geometry, programmable XYZ stage with well plate holder, Cu K-alpha radiation source (wavelength 0.15418 nm) with a focusing mirror, a 0.5° divergence slit, a 0.02° soller slit collimator and a 0.5° anti-scattering slit on the incident beam side, a 2 mm anti-scattering slit, a 0.02° soller slit collimator, a Ni-filter and a solid state PIXcel detector on the diffracted beam side. The diffractogram was recorded at room temperature (25°C) at a tube voltage of 40 kV, tube current of 40 mA, applying a step size of 0.013° 2-Theta with 40 sec per step in the angular range of 2° to 40° 2-Theta. A typical precision of the 2-Theta values is in the range of ± 0.2° 2-Theta. Thus, a diffraction peak that appears for example at 9.4° 2-Theta can appear between 9.2 and 9.6° 2-theta on most X-ray diffractometers under standard conditions. 50 mg of pure amorphous idelalisib obtained as disclosed in Example 4b) were exposed to 98% relative humidity at 25°C for 5 days. […] 50 mg of pure amorphous idelalisib obtained as disclosed in Example 4b) were exposed to 75% relative humidity at 40°C for 5 days. […] 50 mg of pure amorphous idelalisib obtained as disclosed in Example 4b) were thermally stressed at 120°C and 50% relative humidity for 5 days in a sealed vial.

[4] = Solubility at pH 6.8; assay type: physicochemical; details: pH 6.8, aqueous buffer
Procedure: The solubility of Forms I and II of idelalisib is very low. At pH 6.8 a solubility of about 70 mg/L was measured.

[5] = pressure conditions typical for tablet preparation; cited from earlier work

solubility [1] [µg/mL] | change in the amorphous phase by XRPD after compression [2] | change of the amorphous form by XRPD after storage ([3]; 75% relative humidity at 40°C for 5 days) | change of the amorphous form by XRPD after storage ([3]; 98% relative humidity at 25°C for 5 days) | change of the amorphous form by XRPD after storage ([3]; 120°C and 50% relative humidity for 5 days in a sealed vial) | solubility [4] [µg/mL] | Structure (SMILES) | phase conversion under pressure [5]
~415 (≈ 999 µM) | no change in the amorphous phase | no change of the amorphous form | no change of the amorphous form | no change of the amorphous form | – | CC[C@H](Nc1ncnc2[nH]cnc12)c1nc2cccc(F)c2c(=O)n1-c1ccccc1 [pure amorphous idelalisib, (S)-2-(1-(9H-purin-6-ylamino)propyl)-5-fluoro-3-phenylquinazolin-4(3H)-one] | –
– | – | – | – | – | ~70 (≈ 168 µM) | CC[C@H](Nc1ncnc2[nH]cnc12)c1nc2cccc(F)c2c(=O)n1-c1ccccc1 [Form I, (S)-2-(1-(9H-purin-6-ylamino)propyl)-5-fluoro-3-phenylquinazolin-4(3H)-one] | easily converts at least partially to Form II
